From patent publication US20080214611A1, “Pharmaceutical Compositions - 659” (AstraZeneca AB, priority 2007, published 2008)

Assays:
[1] = rat, in vivo, po
Experimental: (§1) The dispersions prepared according to Example 1 and Example 2 were tested in in vivo rat study together with dispersions comprising crystalline particles (prepared by wet milling) of compound A and B, respectively. The dispersions were orally administered at 100 mmol/kg.
(§2) The open circles illustrate the results obtained upon administration of the dispersions comprising crystalline particles.

[2] = in vivo rat study: plasma concentration after oral administration of amorphous versus wet-milled crystalline dispersions; details: 100 mmol/kg, maximum plasma concentration ratio of amorphous dispersion (Example 1 or 2) to wet-milled crystalline dispersion
Experimental: as §1, §2

c^maxamorph/c^maxcrystal [2]	Structure (SMILES)	AUCamorph/AUCcrystal [1]
	O=C(NC1CCCCC1O)c1nn(-c2ccc(Cl)cc2Cl)c(-c2ccc(OS(=O)(=O)CCC(F)(F)F)cc2)c1CO (centres unmarked) [Compound A, 1-propanesulfonic acid, 3,3,3-trifluoro-, 4-[1-(2,4-dichlorophenyl)-3-[[(2-hydroxycyclohexyl)amino]carbonyl]-4-(hydroxymethyl)-1H-pyrazol-5-yl]phenyl ester]	4.8
10	O=C(NC1CCCCC1)c1nn(-c2ccc(Cl)cc2Cl)c(-c2ccc(OS(=O)(=O)CCC(F)(F)F)cc2)c1CO [Compound B, 1-propanesulfonic acid, 3,3,3-trifluoro-, 4-[3-[(cyclohexylamino)carbonyl]-1-(2,4-dichlorophenyl)-4-(hydroxymethyl)-1H-pyrazol-5-yl]phenyl ester]	
